The IC50 is the point on the concentration scale where inhibition reaches its midpoint.

The structures appear in SMILES notation. Where a name gives a salt, the structure may show the parent alone. Read-outs that look alike come from different tables or passages of the source.

For assay [1], the system named is IL-1β action on murine thymocytes. Briefly: Inhibition of IL-1 action (IL-1 assay): suppression of IL-1β + PHA stimulated murine thymocyte proliferation. In kind it is cell-based, mouse (C3H/HeN). The protocol: The ability of the above compounds to suppress the cell-proliferative effect of IL-1β in vitro (O'Gara, 1990) was examined as described in Example 11. Mouse thymocytes in culture were stimulated with IL-1β in the presence of phytohemagglutinin (PHA) and increasing concentrations of triptolide (control) and triptolide derivatives. The cells were cultured for 72 hours, and during the last 18 hours, incubated with tritiated thymidine. DNA synthesis was assessed by measuring incorporation of radiolabeled thymidine. The results expressed in terms of IC50 (concentration effective to cause 50% suppression of proliferation) are shown in Table 1.
C3H/HeN mouse thymocytes were prepared and the action of IL-1 together with PHA, which stimulate proliferation of thymocyte, was measured using standard techniques (O'Gara, 1990; Mishell, 1980). Three- to six-week old C3H/HeN male mice (Simonson Laboratory, Gilroy, Calif.) were sacrificed by CO2 inhalation. Thymi were removed, separated from adherent non-thymic tissue, homogenized in Hank's balanced salt solution (HBSS, Gibco) using a glass homogenizer, and centrifuged at 200×g for 10 minutes at 15° C. Following an additional wash in HBSS, the thymocytes were resuspended in RPMI 1640 medium containing 50 uM 2-mercaptoethanol, 2 mM glutamine, 1 mM sodium pyruvate, non-essential amino acids 100 U/ml penicillin, 100 μg/ml streptomycin, and 10% heat-inactivated fetal bovine serum.
Cells were cultured in round-bottom 96 well microtiter tissue culture plates, 6×10^5 cells per well, in a volume of 100 μl. Recombinant human IL-1β (R & D Systems #201-LB) together with Phytohemagglutinin P (PHA, Pharmacia) were added to the cells in volume of 25 μl per well to achieve a final concentration of 0.08 ng/ml and 10 μg/ml, respectively. Samples were dissolved in DMSO (10 mg/ml), then diluted in culture medium. Twenty five microliters of the test sample was added to each well to achieve the final compound concentrations for each experiment. Cells with PHA together with IL-1 served as controls. The total volume for each well was 150 μl.
Plates were incubated at 37° C. in a 5% CO2 incubator for 72 hours. Fifty microliters of culture medium containing 0.5 μCi (^3 H)-thymidine (Amersham, 49 Ci/mmol) was added to each well prior to the last 18 hours of incubation. Cells were then harvested and counted. The results were reported as counts per minute (cpm) per 6×10^5 cells.
The following formula was used to calculate the percent of suppression of IL-1 activity, and IC50 (concentration of sample yielding 50% suppression of proliferation) was used to indicate the suppressive activity of the sample.
% suppression of IL-1 activity=(1-sample cpm/(IL-1+PHA control

The subject of assay [2] is mixed lymphocyte reaction (spleen cells from female C57BL/6 mice, stimulated with Balb/C spleen cells). Put plainly: Mixed lymphocyte reaction (MLR) assay. In kind it is cell-based, mouse. As to conditions: 50% suppression of proliferation; for IC50: read-out: MLR Assay IC50. The protocol: Inhibition of cell proliferation by the subject compounds was assayed in the mixed lymphocyte reaction (MLR) (Bradley, 1980; Mishell, 1980). Spleen cells from female C57BL/6 mice, the "responder" cells, were prepared and co-cultured alone or in the presence of varying concentrations of the test compounds, with irradiated spleen cells prepared from female Balb/C mice, the "stimulator" cells. Prior irradiation of the stimulator cells rendered them unable to proliferate. A sample of the responder cells was also irradiated for use as a control. The non-irradiated responder cells proliferate in the presence of the allogenic stimulator cells. After a 78-hour incubation, tritiated thymidine was added to the mixed cell cultures, and incorporation of the labeled nucleotide into DNA was measured as an index of cell proliferation.
In this study, the responder cells (R) were spleen cells from female C57BL16 mice, and the stimulator cells (S) were spleen cells from female Balb/C mice 6 to 8 weeks of age (Jackson, Bar Harbor, Me.). The spleens were aseptically removed from the mice and placed into 10 ml of cold HBSS in a sterile petri dish. The spleen was cut in half and gently pressed between the frosted ends of 2 sterile microslides. The cell suspension was then filtered through sterile nylon mesh (Nytex, Tetco #HD-3-85) into a 15 ml conical polypropylene centrifuge tube and centrifuged at 200×g for 10 minutes in a Beckman GPR tabletop centrifuge (GH-3.7 Rotor). Following an additional wash in HBSS, the spleen cells were resuspended in RPMI 1640 medium (Gibco) containing 50 uM 2-mercaptoethanol, 2 mM glutamine, 100 U/ml penicillin, 100 μg/ml streptomycin and 10% heat-inactivated fetal bovine serum.
The stimulator cells (S) and part of the responder cells (R) were diluted at 10×10^6 cells/ml and irradiated at 20 cGy with a Cesium Irradiator (Department of Radiation Oncology, Stanford University, California) to inhibit proliferation. The irradiated cells were washed once to remove any toxic free radicals and their products resulting from irradiation. The responder cells (R), irradiated stimulator cells (Sx) and irradiated responder cell (Rx) were all diluted to 4×10^6 cells/ml.
In the assay, 4×10^5 cells of R were cocultured with 4×10^5 cells of Sx in 200 μl of medium in round bottom 96 well tissue culture plates. Fifty micro-liters of test samples at various concentrations were added to the cells. The wells receiving no test samples would get the maximum proliferation. Several controls were used in the assay. The irradiated responder cells (Rx) were also added to the responder cells with and without the test samples. Rx or Sx alone were checked to make sure no proliferation occurred after irradiation. The spontaneous proliferation of R was also measured.
The culture plates were incubated at 37° C. in a 5% CO2 incubator for four days. The cells were labelled with 1 μCi of (^3 H)-thymidine (Amersham, 49 Ci/mmol) in 20 μl of medium for the last 18 hours. Cells were then harvested and counted. The results were reported as counts per minute (cpm) per well. Percent of suppression and IC50 (concentration of sample producing 50% suppression of proliferation) were used to indicate the suppressive activity of the sample. Sample cpm was calculated as (R+Sx+sample)cpm-(R+Rx+sample)cpm; control cpm was calculated as (R+Sx)cpm-(R+Rx)cpm. Percent suppression of MLR activity was calculated as (1-sample cpm/control cpm)×100. IC50 was determined from percent suppression to indicate the suppressive activity of the sample.

Setting [3] is: 50% suppression of proliferation; 72 h culture.
Where [4] appears, read: read-out: IL-1 Assay IC50; 50% suppression of proliferation; 72 h culture.

Turning to `CC(C)[C@]12O[C@H]1[C@@H]1O[C@]13[C@]1(O[C@H]1C[C@H]1C4=C(CC[C@@]13C)C(=O)OC4)[C@@H]2O` [Triptolide, triptolide, reference compound], the “inhibition of IL-1β action in words” value in assay [1] was “potent inhibitor of IL-1β action”. Also, the concentration for half-maximal inhibition (IC50) in assay [1] (50% suppression of proliferation; 72 h culture; read-out: IL-1 Assay IC50) was around 5 nM; in assay [2] (Mus musculus, Lymphocyte), 0.0009 µg/mL.

On to `CC(C)C12OC1C1OC13C1(C)CCC4=C(COC4=O)C1CC1OC13C2OC(=O)CCC(=O)O` (stereo not drawn) [YM-262, Triptolide Succinate], for which the “IL-1 Assay IC50” value in assay [1] (setting [3]) was 0.181 µg/mL. Also, the IC50 in assay [1] (setting [4]) was found to be 393 nM. Moreover, in assay [2], the “MLR Assay IC50” value worked out at 0.086 µg/mL and the IC50 was determined as 187 nM.

On to `CC(C)C12OC1C1OC13C1(C)CCC4=C(COC4=O)C1CC1OC13C2OC(=O)CCC(=O)O` (stereo not drawn) [YM-273, Triptolide Succinate Tris Salt], for which the “IL-1 Assay IC50” value in assay [1] (setting [3]) is 0.462 µg/mL. The IC50 in assay [1] (setting [4]) is 800 nM; in assay [2] it was 310 nM. For the same molecule, in assay [2], the “MLR Assay IC50” value turned out to be 0.18 µg/mL.

`CC(C)C12OC1C1OC13C1(C)CCC4=C(COC4=O)C1CC1OC13C2OC(=O)CCC(=O)O` (stereo not drawn) [YM-274, Triptolide Succinate Sodium Salt]: the “IL-1 Assay IC50” value in assay [1] (50% suppression of proliferation; 72 h culture; Succinate Sodium Salt) worked out at 0.181 µg/mL. Moreover, in assay [1] (read-out: IL-1 Assay IC50; 50% suppression of proliferation; 72 h culture; Succinate Sodium Salt), the IC50 stood at 376 nM. In addition, in assay [2] (Succinate Sodium Salt), the “MLR Assay IC50” value was 0.09 µg/mL and the IC50 is 187 nM.
